Laboratory results as given in patent publication US20120129781A1, “COMPOSITION COMPRISING ALPHA-LIPOIC ACID AND CARNOSINE FOR TREATING THE PHANTOM LIMB SYNDROME” (DIFASS INTERNATIONAL S.R.L., priority 2009, published 2012).

How the values were obtained:
phantom limb pain = settings: literature reports (Smith et al. 2005; Bergmans et al. 2002); cited from earlier work
phantom limb syndrome = experiment: Two-month daily oral treatment of lower-limb amputee patients affected by phantom limb syndrome (ASIS, VAS, McGill Pain Questionnaire, QoL at t0, 30 and 60 days); format: in vivo; settings: lower-limb amputees, daily oral uptake for two months, evaluated at t0, 30 and 60 days
Source text: In order not to negatively influence the test, it was decided not to include the following in such groups: diabetic patients (in order to avoid interferences with the symptoms of diabetic neuropathy and with the drugs used by the diabetic patient), subjects with psychiatric pathologies also at a compensation stage, subjects with serious cognitive deficits, subjects affected by active hepatic and/or renal pathologies, subjects with organ pathologies and/or other serious comorbidities.
Group A (reference) was subdivided into two uniform groups A1 and A2; group A1 was subjected to a conventional treatment, orally taking for two months a daily dosage amount of the neuromodulator Gabapentin, a known anti-epileptic drug with indications in the treatment of neuropathic pain, as described in US patent application publication No. US 2006/159743. Group A2 was subjected to the same treatment, substituting the neuromodulator Gabapentin with the analogous neuromodulator Pregabalin.
Groups B and C were subjected, during the same two-month period, to a daily uptake of the composition 1 and, respectively, 2 of the present invention, in the same daily dosage amount of 1,200 mg.
This text is aimed at investigating how an amputee perceives their own body image. It is constituted by 20 points; the subjects are asked to indicate their answer by using a scale from 1 (never) to 5 (always). […]

SMILES	effect on phantom limb pain (literature) (phantom limb pain)	phantom limb pain and stump pain (VAS and McGill Pain Questionnaire) (phantom limb syndrome)	phantom limb sensation (sensation of possession of the missing limb, ASIS Amputee Body Image Scale) (phantom limb syndrome)
CCC(=O)C(CC(C)N(C)C)(c1ccccc1)c1ccccc1 (stereo not drawn) [methadone]	effective reduction of the phantom limb pain	–	–
CC(C)C[C@H](CN)CC(=O)O [pregabalin]	–	only experienced a certain decrease of the pain	did not receive any benefit
